How the values were obtained:
3D7 P. falciparum strain = test: parasite proliferation assay in infected red blood cells (SYBR Green I); format: cell-based, Plasmodium falciparum; settings: Plasmodium falciparum, 3D7, Erythrocyte, 3D7 strain; read-out: EC50 3D7 strain
Summary of the method: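 P. falciparum 3D7 grown in O+ human erythrocytes to 3–8% parasitemia and exposed to compounds. Proliferation read as the increase in parasite DNA. Detection used SYBR Green I in saponin/triton-X/EDTA lysis buffer, with overnight lysis at room temperature.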

W2 strain = test: parasite proliferation assay in infected red blood cells (SYBR Green I), W2 strain; format: cell-based, Plasmodium falciparum; settings: Plasmodium falciparum, Erythrocyte
From the text: Compounds of the invention can be assayed to measure their capacity to inhibit proliferation of parasitemia in infected red blood cells. The proliferation is quantified by the addition of SYBR Green I (INVITROGEN)® dye which has a high affinity for double stranded DNA.

Row | SMILES | EC50 (3D7 P. falciparum strain) [µM] | EC50 (W2 strain) [µM]
1 | CC1(C)c2nc(-c3ccc(F)cc3)c(Nc3cccc(C(F)(F)F)c3)n2CCN1C(=O)C(F)(F)F [Compound 528] | 0.15 | 0.121
2 | Cc1ccc(Nc2c(-c3ccc(F)cc3)nc3n2CCN(C(=O)C(C)(C)N)C3(C)C)cc1 [Compound 529, 2-amino-1-(2-(4-fluorophenyl)-8,8-dimethyl-3-(p-tolylamino)-5,6-dihydroimidazo[1,2-a]pyrazin-7(8H)-yl)-2-methylpropan-1-one] | 0.002 | 0.004
3 | CC1(C)c2nc(-c3ccc(F)cc3)c(NC3CCCCC3)n2CCN1C(=O)CN [Compound 531] | 0.04 | 0.057
4 | Cc1ccc(Nc2c(-c3ccc(F)cc3)nc3n2CCN(C(=O)CN)C3(C)C)cc1Cl [Compound 532] | 0.02 | 0.009
5 | Cc1ccc(Nc2c(-c3ccc(F)cc3)nc3n2CCN(C(=O)CN)C3(C)C)cc1F [Compound 533] | 0.03 | 0.022
6 | CC1(C)c2nc(-c3ccc(F)cc3)c(Nc3ccc(C#N)c(Cl)c3)n2CCN1C(=O)CN [Compound 534] | 0.04 | 0.019
7 | Cc1ccc(Nc2c(-c3ccc(F)cc3)nc3n2CC(=O)NC3(C)C)cc1C#N [Compound 535] | 2.72 | 2.35
8 | CN1CC(C)(C)n2c(nc(-c3ccc(F)cc3)c2Nc2ccc(F)cc2)C1(C)C [Compound 536] | 6.4 | 5.93
9 | CC1(C)NC(=O)Cn2c1nc(-c1ccc(F)cc1)c2Nc1ccc(F)c(C#N)c1 [Compound 537] | 11.9 | 8.34
10 | Cc1ccc(Nc2c(-c3ccc(F)cc3)nc3n2C(C)(C)C(=O)N(C)C3(C)C)cc1 [Compound 538] | 7.67 | 8.06
11 | Cc1ccc(Nc2c(-c3ccc(F)cc3)nc3n2C(C)(C)CN(C)C3(C)C)cc1 [Compound 539] | 3.06 | 3.12
12 | CC(C)(C)OC(=O)NCC(=O)N1CCn2cc(-c3ccc(F)cc3)nc2C1 [Compound 540, tert-butyl 2-(2-(4-fluorophenyl)-5,6-dihydroimidazo[1,2-a]pyrazin-7(8H)-yl)-2-oxoethylcarbamate] | 8.42 | 9.81
13 | Cc1ccc(Nc2c(-c3ccc(F)cc3)nc3n2CCNC3(C)C)cc1F [Compound 541] | 0.01 | 0.01
14 | CC1(C)NC(=O)Cn2c1nc(-c1ccc(F)cc1)c2Nc1cc(F)c(F)c(F)c1 [Compound 543] | 0.17 | 0.305
15 | Cc1cc(Nc2c(-c3ccc(F)cc3)nc3n2CC(=O)NC3(C)C)ccc1F [Compound 544] | 0.02 | 0.037
16 | COc1ccc(Nc2c(-c3ccc(F)cc3)nc3n2CC(=O)NC3(C)C)cn1 [Compound 545] | 3.38 | 5.62
17 | Cc1ccc(Nc2c(-c3ccc(F)cc3)nc3n2CC(=O)NC3(C)C)cc1Cl [Compound 546] | 0.03 | 0.052
18 | Cc1ccnc(Nc2c(-c3ccc(F)cc3)nc3n2CC(=O)NC3(C)C)c1 [Compound 547] | 1.82 | 4.66
19 | CC1(C)NC(=O)Cn2c1nc(-c1ccc(F)cc1)c2Nc1ccc(C#N)c(Cl)c1 [Compound 548] | 2.63 | 5.55
20 | CC(C)[C@H]1NC(=O)Cn2c1nc(-c1ccc(F)cc1)c2Nc1ccc(Cl)cc1 [Compound 549] | 1.7 | 3.26
21 | CC(C)[C@H]1NC(=O)Cn2c1nc(-c1ccc(F)cc1)c2Nc1ccc(Cl)c(F)c1 [Compound 550] | 2.56 | 3.6
22 | CC1(C)NC(=O)Cn2c1nc(-c1ccc(F)c(F)c1)c2Nc1ccc(Cl)c(F)c1 [Compound 551] | 0.04 | 0.098
23 | CC1(C)c2nc(-c3ccc(F)cc3)c(Nc3cccc(NS(C)(=O)=O)c3)n2CCN1C(=O)CN [Compound 552] | 2.52 | 4.48

Row | SMILES | EC50 (3D7 P. falciparum strain) [µM] | EC50 (W2 strain) [µM]
24 | CNC(=O)c1cccc(Nc2c(-c3ccc(F)cc3)nc3n2CCN(C(=O)CN)C3(C)C)c1 [Compound 553] | 2.37 | 4.66
25 | CC1(C)NCCn2c1nc(-c1ccc(F)cc1)c2Nc1cc(F)c(F)c(F)c1 [Compound 555] | 0.01 | 0.016
26 | CN1Cc2nc(-c3ccc(F)cc3)c(Nc3ccc(Cl)cc3)n2CC1(C)C [Compound 556, N-(4-chlorophenyl)-2-(4-fluorophenyl)-6,6,7-trimethyl-5,6,7,8-tetrahydroimidazo[1,2-a]pyrazin-3-amine] | 0.06 | 0.075
27 | CC1(C)Cn2c(nc(-c3ccc(F)cc3)c2Nc2ccc(Cl)cc2)CN1C(=O)CN [Compound 557] | 0.02 | 0.02
28 | CC1(C)Cn2c(nc(-c3ccc(F)cc3)c2Nc2ccc(Cl)cc2)CN1 [Compound 558] | 0.06 | 0.089
29 | C[C@@H]1NC(=O)Cn2c1nc(-c1ccc(F)cc1)c2Nc1ccc(Cl)c(F)c1 [Compound 559] | 0.53 | 0.642
30 | Cc1cc(Nc2c(-c3ccc(F)cc3)nc3n2CC(=O)NC3(C)C)nn1C [Compound 560] | 3.61 | 5.22
31 | CCN1CCCC1CNc1c(-c2ccc(F)cc2)nc2n1CC(=O)NC2(C)C (stereo not drawn) [Compound 561] | 7.17 | 4.4
32 | CC(C)[C@@H]1NC(=O)Cn2c1nc(-c1ccc(F)cc1)c2Nc1ccc(Cl)c(F)c1 [Compound 562] | 4.82 | 6.29
33 | C[C@@H]1NC(=O)Cn2c1nc(-c1ccc(F)cc1)c2Nc1ccc(Cl)cc1 [Compound 563] | 0.31 | 0.445
34 | C[C@H]1NC(=O)Cn2c1nc(-c1ccc(F)cc1)c2Nc1ccc(Cl)c(F)c1 [Compound 564] | 0.25 | 0.359
35 | C[C@H]1NC(=O)Cn2c1nc(-c1ccc(F)cc1)c2Nc1ccc(Cl)cc1 [Compound 565] | 0.07 | 0.105
36 | CC1(C)NC(=O)Cn2c1nc(-c1ccc(F)cc1)c2Nc1cnc2ccccc2c1 [Compound 566] | 5.48 | 4.46
37 | CC1(C)NC(=O)Cn2c1nc(-c1ccc(F)cc1)c2Nc1ccc(S(C)(=O)=O)cc1 [Compound 567] | 6.46 | 8.46
38 | CN1CCN(c2ccc(Nc3c(-c4ccc(F)cc4)nc4n3CC(=O)NC4(C)C)cc2)CC1 [Compound 568] | > 8.04 | > 11.3
39 | CN1CCN(Cc2cccc(Nc3c(-c4ccc(F)cc4)nc4n3CC(=O)NC4(C)C)c2)CC1 [Compound 569] | 9.27 | 7.92
40 | CC1(C)c2nc(-c3ccc(F)cc3)c(Nc3ccc(S(C)(=O)=O)cc3)n2CCN1C(=O)CN [Compound 570] | 5.68 | 5.56
41 | CN1CCN(c2ccc(Nc3c(-c4ccc(F)cc4)nc4n3CCN(C(=O)CN)C4(C)C)cc2)CC1 [Compound 571] | 6.2 | 7.48
42 | CN1CCN(c2ccc(Nc3c(-c4ccc(F)cc4)nc4n3CCNC4(C)C)cc2)CC1 [Compound 572] | 11.2 | 8.73
43 | Cc1ccc(Nc2c(-c3ccc(F)cc3)nc3n2CC(C)(C)N(C(=O)CN)C3)cc1 [Compound 573] | 0.04 | 0.055
44 | CC1(C)Cn2c(nc(-c3ccc(F)cc3)c2Nc2ccc(F)cc2)CN1C(=O)CN [Compound 574] | 0.08 | 0.111
45 | CC1(C)Cn2c(nc(-c3ccc(F)cc3)c2Nc2ccc(F)c(F)c2)CN1C(=O)CN [Compound 575] | 0.08 | 0.081

— US9469645B2, “Compounds and compositions for the treatment of parasitic diseases” (Novartis AG, priority 2009, dated 2016)
